Assays:
MAP17 gene = MAP17 gene expression in human keratinocytes treated with ginsenoside-Re (Q-RT-PCR); assay type: cell-based; conditions: ginsenoside-Re 10 uM, 24 hours, vs untreated control, FIG. 5 (A)
Experimental: (§1) Various human keratinocytes were treated with a variety of materials, and change in expression of MAP17 and filaggrin genes were monitored. It was investigated whether ginsenoside-Re, a kind of ginsenoid derived from the fruit of ginseng, regulates the expression of MAP17 and filaggrin genes. Human keratinocytes were purchased from Lonza, Inc. and cultured in KBM-2 medium (Clonetics CC-3103) in a CO2 incubator under a condition of 37° C. and 5% CO2.
(§2) The cultured human keratinocytes without any treatment were used as a control group. For a test group, the human keratinocytes were further cultured for 24 hours after adding ginsenoside-Re (10 uM). Ginsenoside-Re was purchased from Wako (Kanagawa, Japan) and prepared into a solution according to the manufacturer's instructions. […]
(§3) The isolated RNA was purified once more using Qiagen RNeasy kit (Qiagen, Valencia, Calif.) and RNA quality and concentration were verified using Agilent 2100 BioAnalyzer (Agilent Technologies, Santa Clara, Calif., USA). cDNA was synthesized from the isolated RNA using Superscript RT II kit (Invitrogen, Carlsbad, Calif.), and change in gene expression was quantitatively analyzed by means of Q-RT-PCR. Change in the expression pattern of MAP17 (Hs00173779_m1) and filaggrin (Hs00856927_g1) was evaluated using TaqMan® gene expression assay kit (Applied Biosystems, Foster City, Calif.) and is shown in FIG. 5.

filaggrin gene = filaggrin gene expression in human keratinocytes treated with ginsenoside-Re (Q-RT-PCR); assay type: cell-based; conditions: ginsenoside-Re 10 uM, 24 hours, vs untreated control, FIG. 5 (B)
Experimental: as §1, §2, §3

With `CC(C)=CCC[C@](C)(O[C@@H]1O[C@H](CO)[C@@H](O)[C@H](O)[C@H]1O)[C@H]1CC[C@]2(C)[C@@H]1[C@H](O)C[C@@H]1[C@@]3(C)CC[C@H](O)C(C)(C)[C@@H]3[C@@H](O[C@@H]3O[C@H](CO)[C@@H](O)[C@H](O)[C@H]3O[C@@H]3O[C@@H](C)[C@H](O)[C@@H](O)[C@H]3O)C[C@]12C` [ginsenoside-Re] the “expression of the MAP17 gene in human keratinocytes” value (MAP17 gene) was “markedly decreases” and the “expression of the filaggrin gene in human keratinocytes” value (filaggrin gene) was “increases”.
